From US9849113B2, “Methods of treating α adrenergic mediated conditions” (Allergan, Inc., priority 2008, dated 2017)

Legend:
male ddC treated rats = experiment: Dideoxycytidine (ddC) model of neuropathic pain, allodynia by von Frey hairs; format: in vivo, rat; conditions: for % Allodynia Reversal: 15 min post dose / % Allodynia Reversal: 30 min post dose / % Allodynia Reversal: 60 min post dose / % Allodynia Reversal: 120 min post dose: mean ± SEM
Procedure: The ddC Model in the rat is a relatively new model of neuropathic pain discovered from clinical treatment of the AIDS virus. […] The experimental animal model in the rat for neuropathic pain by ddC injection manifests symptoms of human patients with causalgia. It is considered predictive of clinical activity against neuropathic pain (Joseph et al, 2004). Compound N-(2,3-dichlorobenzyl)-4,5-dihydro-1H-imidazol-2-amine was tested in this ddC model of allodynic pain. The compound was administered intraperitoneally to male ddC treated rats.
The animals are injected intraperitoneally (IP) with 25 mg/kg dideoxycytidine (ddC) using a sterile 30 gauge needle. Approximately 3 weeks after the ddC injection a painful neuropathy develops causing sensitivity to light touch on the animals' extremities. This neuropathy can last for 2-3 months. The animals show no spontaneous pain, only a heightened response to mechanical stimuli (von Frey hair stimulation). The allodynia is quantitated in the animals receiving ddC injections by stimulation with a series of 8 Von Frey hairs on the mid planter area of the hind paws in the up-down manner described by Dixon (Dixon, 1980).
Male Sprague-Dawley rats (Charles River, Wilmington, Mass.) weighing approximately 150-300 grams were used for these studies. All experimental animals received N-(2,3-dichlorobenzyl)-4,5-dihydro-1H-imidazol-2-amine or vehicle in a single acute IP dose. In all studies, baseline measurements were taken prior to drug administration and then at 15, 30, 60 and 120 minutes post acute IP dosing (vehicle or N-(2,3-dichlorobenzyl)-4,5-dihydro-1H-imidazol-2-amine). The % allodynia reversal is calculated as: [(Postdrug threshold—Predrug threshold)/(15-Predrug threshold)]×100.
N-(2,3-dichlorobenzyl)-4,5-dihydro-1H-imidazol-2-amine was dissolved in 42% DMSO (dimethyl sulfoxide; Sigma, St. Louis, Mo.) at a concentration of 3 mg/ml. This stock solution was kept frozen at −20° C., was thawed on the day of the study and diluted in dd-H2O to concentrations ranging from 0.01-0.1 mg/ml for IP dosing (dosing volume=1 ml/kg). The vehicle is dd-H2O for these studies.
Data were compiled and analyzed using Microsoft Excel and/or Kaleidagraph. Data are expressed as mean± standard error of the mean. Comparisons between drug treated and vehicle groups were made using a two-tailed, 2-sample, unpaired t-test. Comparisons between baselines (pre-drug) and post-drug time points were made using a two-tailed, 2-sample, paired t-test.

Chung model rats = experiment: Chung model of chronic pain (spinal nerve ligation), tactile allodynia by von Frey hairs; format: in vivo, rat; conditions: single oral dose, FIG. 1
Procedure: Various concentrations of N-(2,3-dichlorobenzyl)-4,5-dihydro-1H-imidazol-2-amine were administered orally to Chung model rats. A model in accordance with Kim and Chung 1992, Pain […], pp 355-363 (Chung model), for chronic pain (in particular peripheral neuropathy) involves the surgical ligation of the L5 (and optionally the L6) spinal nerves on one side in experimental animals. Rats recovering from the surgery gain weight and display a level of general activity similar to that of normal rats. However, these rats develop abnormalities of the foot, wherein the hindpaw is moderately everted and the toes are held together. More importantly, the hindpaw on the side affected by the surgery appears to become sensitive to pain from low-threshold mechanical stimuli, such as that producing a faint sensation of touch in a human, within about 1 week following surgery. […]
Tactile allodynia is measured prior to and 30 minutes after drug administration using von Frey hairs that are a series of fine hairs with incremental differences in stiffness. […] The applied force has been calculated to range from 0.41 to 15.1 grams. […] The 50% paw withdrawal threshold is determined using the method of Dixon, W. J., Ann. […] The post-drug threshold is compared to the pre-drug threshold and the percent reversal of tactile sensitivity is calculated based on a normal threshold of 15.1 grams.

In the case of `Clc1cccc(CNC2=NCCN2)c1Cl` [N-(2,3-dichlorobenzyl)-4,5-dihydro-1H-imidazol-2-amine], the “% Allodynia Reversal: 15 min post dose” value (male ddC treated rats; 0.01 mg/kg IP, n = 6) is reported as 1.8 ± 1.6%, the “% Allodynia Reversal: 30 min post dose” value (male ddC treated rats; 0.01 mg/kg IP, n = 6) is reported as 3.0 ± 1.7% and the “% Allodynia Reversal: 60 min post dose” value (male ddC treated rats; 0.01 mg/kg IP, n = 6) is reported as 1.5 ± 2.0%. The “% Allodynia Reversal: 120 min post dose” value (male ddC treated rats; 0.01 mg/kg IP, n = 6) was 0.1 ± 1.3%, the “% Allodynia Reversal: 15 min post dose” value (male ddC treated rats; 0.03 mg/kg IP, n = 6) was 34 ± 3.9 % and the “% Allodynia Reversal: 30 min post dose” value (male ddC treated rats; 0.03 mg/kg IP, n = 6) was 67%. The “% Allodynia Reversal: 60 min post dose” value (male ddC treated rats; 0.03 mg/kg IP, n = 6) was 20 ± 3.7 %, the “% Allodynia Reversal: 120 min post dose” value (male ddC treated rats; 0.03 mg/kg IP, n = 6) was 2.0 ± 2.6% and the “% Allodynia Reversal: 30 min post dose” value (male ddC treated rats; 0.03 mg/kg IP, n = 6, listed as 200762) was 67 ± 9.0 %. For the same compound, the “% Allodynia Reversal: 15 min post dose” value (male ddC treated rats; 0.1 mg/kg IP, n = 6) was 58 ± 9.1 %, the “% Allodynia Reversal: 30 min post dose” value (male ddC treated rats; 0.1 mg/kg IP, n = 6) was 86% and the “% Allodynia Reversal: 60 min post dose” value (male ddC treated rats; 0.1 mg/kg IP, n = 6) was 34 ± 2.5 %. The “% Allodynia Reversal: 120 min post dose” value (male ddC treated rats; 0.1 mg/kg IP, n = 6) was 0.9 ± 1.2%, the “% Allodynia Reversal: 30 min post dose” value (male ddC treated rats; 0.1 mg/kg IP, n = 6, listed as 200762) was 86 ± 6.3 % and the “Minimal statistically significant efficacious dose” value (male ddC treated rats; IP, male rats) was 0.03 mg/kg. For the same compound, the No-effect dose (male ddC treated rats; IP, male rats) was 0.01 mg/kg, the “Time of decrease of allodynia reversal to baseline” value (Chung model rats) was “about 120 minutes” and the “Time of peak percent allodynia reversal” value (Chung model rats) was 30 min.
